Measurements published in publication PMC5640902, “Monitoring multiple myeloma by idiotype-specific peptide binders of tumor-derived exosomes” (Molecular Cancer, 2017).
Positions of bridges follow the written chain, without caps; N, C: chain ends. No end group written: not given here.

Assays:
[1] = system: 5T33MM cells; experiment: In vitro cell binding of FITC-conjugated peptides by flow cytometry; type: cell-based, murine; conditions: 10 min on ice, Fig. 2b
Protocol: (§1) Cultured 5T33MM, A20 and IM9 cells as well as primary B cells from MM patient and healthy donor were washed and suspended at the density of 10^6 cells/ml in FACs Flow Buffer [BD Biosciences]. All subsequent washing and incubations were carried out in the same buffer on ice. Cells were incubated with 20 μg/ml of FITC-conjugated peptides for 10 min on ice, then washed twice, and analyzed by flow cytometry [FACSCalibur, BD Biosciences]. For peptide co-localization with the BCR complex, 5T33MM cells (10^6 cells/ml) were stained with FITC-conjugated peptides [10 μg/ml) and goat anti-mouse IgG-Alexa fluor 568 [Thermo Fisher]. After extensive washing, cells were mounted under cover slip, and visualized by confocal microscopy [Leica TC-SP2].

[2] = system: 5T33MM-derived exosomes; experiment: Exosome immunocapture (anti-CD63 SMNPs) and flow cytometry, 5T33MM-derived exosomes; type: binding, murine; conditions: exosomes from cell supernatant trapped on anti-CD63 SMNPs; FITC-conjugated reagent; Fig. 4
Protocol: (§2) Exosomes were isolated from 250 μL of blood and 10 mL of cell supernatant respectively using ExoQuick solutions [System Biosciences – SBI, Palo Alto, California, US] and ExoQuick-TC™ [System Biosciences], according to the manufacturer’s protocol. Briefly, serum and cell supernatants were centrifuged at 3000×g for 15 min to remove cells and cell debris. The supernatant was transferred to a sterile vessel and the recommended volume of ExoQuick solution or ExoQuick-TC™ were added to the bio-fluids. After brief vortex, samples were stored 30 min at 4 °C and then centrifuged at 1500 x g for 30 min at room temperature. After removing the supernatant, the pellet was suspended in nuclease-free water.
(§3) Isolated exosomes from serum or cell supernatants were suspended in 1 ml of 1X PBS. Exosome aliquots (500 μl) were labeled with 50 μl of 10X Exo-Red [SBI] according to manufacturer’s instructions. The exosomes were re-isolated using the addition of 100 μl ExoQuick followed by precipitation for 30 min at +4 °C. The labeled exosome pellet was suspended in 500 μl 1X PBS and stained with CD63-coupled magnetic beads provided by SBI’s Exo-Flow IP kit [SBI] and with the FITC-conjugated peptides.

[3] = system: 5T33MM cells; experiment: Confocal microscopy of FITC-conjugated peptide co-localization with the BCR complex; type: cell-based, murine; conditions: FITC-conjugated p5 peptide, non-permeabilized cells, anti-mouse IgG co-staining; Fig. 2c
Protocol: as §1

[4] = system: polyclonal mouse Igs; experiment: ELISA binding of biotinylated peptide to control polyclonal mouse Igs; conditions: biotinylated-p5 peptide, Fig. 2a
Protocol: (§4) Single strand DNA (ssDNA) was extracted from the selected phage clones by phenol/chlorophorm purification followed by ethanol precipitation. DNA fragment codifying the peptide ligand was amplified by PCR and sequenced to get the primary structure of amino acid sequence for the peptide synthesis. Synthesized peptides were purchased from Caslo Laboratory ApS [Caslo, Kongens Lyngby, DE]. The specific binding of peptides to the 5T33MM sIgG was analyzed by ELISA, as follows. Streptavidin coated 96 well plates were washed extensively and supplemented with biotin-conjugated peptides by 1 h-incubation at 37 °C; then, after washing and blocking with blocking solution (1X PBS, 0.05% Tween-20, 5% milk), aliquots of 5T33MM sIgG (1 μg/ml in blocking buffer) were added overnight at 4 °C. Wells were extensively washed and coated with the anti-mouse IgG (Fc-specific) alkaline phosphatase-conjugated [Sigma Aldrich] for 1 h at 37 °C, incubated with the alkaline phosphatase substrate [Sigma Aldrich], and analyzed by an ELISA reader at 405 nm [Labsystems multiscan MS].
(§5) The random peptide insert was flanked by a pair of cysteines resulting in cyclized peptide exposed on M13 coat protein. After three rounds of affinity selection, single phage clones were purified and tested by enzyme-linked immunosorbent assay (ELISA) for binding to the 5T33MM Igs or control Igs, as previously described. […]

[5] = system: mIg-5T33MM; experiment: ELISA binding of biotin-conjugated Id-peptides to 5T33MM Ig (Scatchard plot analysis); set-up: species or system murine; conditions: biotinylated-p5 peptide at different concentrations; Fig. 2a
Protocol: as §4, §5

[6] = system: IM9-derived exosomes; experiment: Exosome immunocapture (anti-CD63 SMNPs) and flow cytometry, IM9-derived exosomes; type: binding, human; conditions: exosomes trapped on anti-CD63 SMNPs; FITC-conjugated p5 peptide; Fig. 4
Protocol: as §2, §3

[7] = system: A20 secreted IgG; experiment: ELISA binding of biotinylated peptide to control A20 secreted IgG; set-up: species or system murine; conditions: biotinylated-p5 peptide; control Ig; Fig. 2a
Protocol: as §4, §5

[8] = system: A20-derived exosomes; experiment: Exosome immunocapture (anti-CD63 SMNPs) and flow cytometry, A20-derived exosomes; type: binding, murine; conditions: exosomes trapped on anti-CD63 SMNPs; FITC-conjugated p5 peptide; Fig. 4
Protocol: as §2, §3

reactivity against polyclonal mouse Igs by ELISA [4] | reactivity against A20 secreted IgG by ELISA [7] | Sequence | recognition of 5T33MM target cells by flow cytometry [1] | detection of 5T33MM-derived exosomes by flow cytometry [2] | localization on 5T33MM cells by confocal microscopy [3] | reactivity to the cognate antibody (5T33MM-Igs) by ELISA [5] | detection of exosomes released from human IM9 multiple myeloma cells [6] | detection of exosomes released from murine A20 B-lymphoma cells [8]
 |  | CGGNGPGLC [pCNT, irrelevant peptide (…) included as a negative control, FITC-conjugated, reference compound] | did not | undetected |  |  |  | 
did not react | did not react | CIGNSNTLC (disulfide 1-9 (inferred)) [p5, used biotinylated or FITC-conjugated] | recognized 5T33MM target cells in a dose-dependent manner | equally detected | bound to the 5T33MM cell surface and also localized inside the cells | concentration-dependent specific reactivity | did not detect | did not detect
